Results published in patent publication US11873298B2, “Compounds and uses thereof” (JANSSEN PHARMACEUTICA NV, priority 2017, dated 2024).
pEC50, pIC50: −log10 of the molar value.

What was measured:
Ole1 = biological target: T1, Ole1 (Saccharomyces cerevisiae, UniProt P21147); assay: Growth inhibition of yeast strain expressing Ole1 as sole desaturase; type: cell-based; conditions: yeast strain expressing Ole1 as sole desaturase
T1 construct: expressed in transfected cells; host or cells: S. cerevisiae ole1Δ strain (W303 pdr1Δ pdr3Δ background), plasmid pRS316 with TDH3 promoter and CYC1 terminator
T1 sequence (P21147 1-510): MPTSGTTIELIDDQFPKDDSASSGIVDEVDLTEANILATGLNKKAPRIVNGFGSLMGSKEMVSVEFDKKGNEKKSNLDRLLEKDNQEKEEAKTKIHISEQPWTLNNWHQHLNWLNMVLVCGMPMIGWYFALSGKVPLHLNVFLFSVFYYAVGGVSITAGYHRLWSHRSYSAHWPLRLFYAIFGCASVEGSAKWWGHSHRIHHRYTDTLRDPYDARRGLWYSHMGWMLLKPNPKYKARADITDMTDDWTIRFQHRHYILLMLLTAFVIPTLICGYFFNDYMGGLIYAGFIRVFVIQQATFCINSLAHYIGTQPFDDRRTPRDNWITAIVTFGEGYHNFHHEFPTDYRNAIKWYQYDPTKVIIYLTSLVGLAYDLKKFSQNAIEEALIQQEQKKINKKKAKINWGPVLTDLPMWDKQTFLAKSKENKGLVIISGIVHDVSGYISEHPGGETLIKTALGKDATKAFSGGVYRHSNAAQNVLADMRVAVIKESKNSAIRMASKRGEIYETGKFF
How it was run: (§1)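 Yeast ole1Δ strain (W303 pdr1Δ pdr3Δ background) carrying plasmid-borne Ole1, SCD1 or SCD5 as sole desaturase was grown in uracil-lacking media, pre-cultured in raffinose for 6 h, then seeded in galactose medium with compound in DMSO. Growth was read as OD600 after 30° C. incubation: 24 h for Ole1, 40 h for SCD1/SCD5.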

SCD5 = biological target: T2, SCD5 (Homo sapiens, UniProt Q86SK9); assay: Growth inhibition of humanized yeast strain expressing SCD5 as sole desaturase; type: cell-based; conditions: humanized yeast strain expressing SCD5
T2 construct: host or cells: S. cerevisiae ole1Δ strain (W303 pdr1Δ pdr3Δ background), plasmid pRS316 with TDH3 promoter and CYC1 terminator
T2 sequence (Q86SK9 1-330): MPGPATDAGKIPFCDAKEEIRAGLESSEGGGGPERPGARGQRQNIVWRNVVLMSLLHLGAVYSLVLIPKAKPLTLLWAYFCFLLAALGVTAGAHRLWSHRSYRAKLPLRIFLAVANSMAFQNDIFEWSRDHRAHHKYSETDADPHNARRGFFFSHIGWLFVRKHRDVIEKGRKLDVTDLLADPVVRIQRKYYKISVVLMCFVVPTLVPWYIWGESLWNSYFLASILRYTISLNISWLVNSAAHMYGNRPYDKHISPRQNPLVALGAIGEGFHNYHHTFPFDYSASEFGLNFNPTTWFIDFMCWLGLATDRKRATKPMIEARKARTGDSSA
How it was run: as §1

[1] = tested on: yeast strains expressing the human α-synuclein; assay: Yeast α-synuclein toxicity rescue assay (OD600 growth); conditions: 40 h; for pEC50: read-out: α-Syn EC50; for Emax: read-out: α-Syn Emax
Source text: (§2) The induced expression of α-synuclein and ApoE4 confers cytotoxicity, thus enabling the identification of compounds that can restore cell viability. This instantaneous/synchronous induction of α-synuclein and ApoE4 can be achieved due to the following expression control. In glucose-containing media, gene expression from the GAL1 promoter is ‘off’ and actively repressed by additional epigenetic factors. In raffinose, expression is ‘off’, but the promoter not actively repressed. Upon transition to galactose-containing media, the promoter is instantaneously turned ‘on’ to achieve robust and synchronous induction of α-synuclein or ApoE4 expression. This highly regulated induction provides a robust window for the determination of both efficacy (amplitude of protective effect) and potency (concentration of protective effect) of cytoprotective compounds.
(§3) Re-suspended compound stocks were subsequently arrayed into 384 well compound plates using automated pipetting. All other wells not receiving stock compound were filled with 10 μL of 100% DMSO using an automated plate filler (Multidrop Combi). An 11 point, 2-fold serial dilution was then performed using the robotic platform. Compound assay plates were covered with foil and stored at −20° C. until use.
(§4) Each strain was handled according to standard protocols and cultured in media composed of CSM (complete synthetic media), YNB (yeast nitrogenous base), and a 2% (w/v) carbon source (either glucose, raffinose, or galactose).
(§5) In a standard yeast assay, a single-use aliquot of cells was thawed on ice and diluted into CSM/glucose (5 mL). Cultures were grown for 8 hours at 30° C. This pre-growth enables the yeast to exit the thaw and begin to grow without expressing aSyn or ApoE4. After 8 hours, cell density (OD600) was determined and cultures diluted to an OD600 of 0.01 in CSM/raffinose for an overnight culture phase at 30° C. During this period, the active glucose repression of the GAL1 promoter was relieved; however, expression of the α-Syn/ApoE4 genes were not yet induced. After ˜16 hours of growth, cultures attain an OD600 of 0.4-0.8 and were ready to apply to assay plates containing compound.
(§6) Compound profiling assays were executed in clear-bottom 384 well plates. First, compound plates were thawed at room temperature for 45′, centrifuged at 1,000×g for 1 minute, and the foil removed. Clear 384 well assay plates were then filled with 15 μL of CSM/galactose. […] The pin tool was washed iteratively with both 50% DMSO and 100% ethanol between each assay plate. After delivering compound to each assay plate, the overnight CSM/raffinose aSyn or ApoE4 cultures were added at a 2X cell density (0.04 for aSyn and 0.08 for ApoE4) in CSM/galactose to achieve a final assay OD600 of 0.02 and 0.04 for aSyn and ApoE, respectively. The cultures (15 μL per well) were then dispensed to the compound -containing 384 well assay plates using an automated plate filler. Plates were incubated in a humidified 30° C. incubator for 40 or 24 hours for aSyn and ApoE4, respectively. The ODsoo of each assay plate was then read with a microplate reader (e.g., Perkin Elmer Envision).
(§7) The efficacy and potency of compounds were calculated according to the following. Raw data (OD600 values) were first background corrected to account for OD600 contributed by the plate and media itself. The efficacy (percent above DMSO, herein referred to as “Emax”) was calculated according to the equation: (Experimental well−DMSO control well)/(DMSO control well)*100. […] Normalized dose-response data was fit with a logistic regression curve using Spotfire (TIBCO), or similar curve-fitting software package. EC50 values were then reported along with EMax to provide both efficacy and potency measures for each analog and enable further compound design.

[2] = tested on: yeast strains expressing the human ApoE4; assay: Yeast ApoE4 toxicity rescue assay (OD600 growth); conditions: 24 h; for Emax: read-out: ApoE4 Emax; for pEC50: read-out: ApoE4 EC50
Source text: as §2, §3, §4, §5, §6, §7

SCD1 = biological target: T3, SCD1 (Homo sapiens, UniProt O00767); assay: Growth inhibition of humanized yeast strain expressing SCD1 as sole desaturase; type: cell-based; conditions: humanized yeast strain expressing SCD1
T3 construct: host or cells: S. cerevisiae ole1Δ strain (W303 pdr1Δ pdr3Δ background), plasmid pRS316 with TDH3 promoter and CYC1 terminator
T3 sequence (O00767 1-359): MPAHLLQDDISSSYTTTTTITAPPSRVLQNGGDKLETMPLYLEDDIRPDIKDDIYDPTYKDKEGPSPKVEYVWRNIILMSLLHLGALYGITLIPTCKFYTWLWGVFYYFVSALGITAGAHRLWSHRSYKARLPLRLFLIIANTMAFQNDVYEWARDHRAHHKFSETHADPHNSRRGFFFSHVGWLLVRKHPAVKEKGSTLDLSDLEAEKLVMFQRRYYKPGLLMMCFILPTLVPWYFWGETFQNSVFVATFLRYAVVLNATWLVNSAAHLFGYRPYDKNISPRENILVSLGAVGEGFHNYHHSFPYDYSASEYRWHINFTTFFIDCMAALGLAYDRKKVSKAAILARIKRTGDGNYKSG
How it was run: as §1

Row | SMILES | pIC50 (Ole1) | OLE1 % Max Inhibition (Ole1) [%] | pIC50 (SCD5) | SCD5 % Max Inhibition (SCD5) [%] | pEC50 [1] | Emax [1] [%] | Emax [2] [%] | pIC50 (SCD1) | SCD1 % Max Inhibition (SCD1) [%] | pEC50 [2]
1 | COc1ccc(-c2noc(C3CCN(C(=O)[C@H](C)NC(=O)c4ccccc4)CC3)n2)cc1OC (single isomer, unassigned) [Compound 59] | < 4.35 | 105.25 | < 4.35 | 59.32 | 4.81 | 82 | 47 | < 4.35 | 79.13 | –
2 | COc1ccc(-c2noc(C3CCN(C(=O)[C@@H](C)NC(=O)c4ccccc4)CC3)n2)cc1OC (single isomer, unassigned) [Compound 60] | < 4.35 | 2.91 | 4.39 | 57.19 | 7.49 | 605 | 795 | < 4.35 | 72.03 | 6.92
3 | Cc1ccc(-c2noc(C3CCN(C(=O)[C@H]4CC(=O)N(c5ccc(C)c(C)c5)C4)CC3)n2)cc1 (single isomer, unassigned) [Compound 61] | 4.39 | 71.50 | < 4.35 | 13.18 | 4.71 | 229 | 465 | < 4.35 | 2.37 | 4.71
4 | COc1ccc(-c2noc(C3CCN(C(=O)[C@@H]4CC(=O)N(c5ccc(C)c(C)c5)C4)CC3)n2)cc1 (single isomer, unassigned) [Compound 63] | < 4.35 | 101.06 | < 4.35 | 9.39 | 4.77 | 68 | 250 | 4.47 | 62.04 | 4.87
5 | COc1ccc(-c2noc(C3CCN(C(=O)[C@H]4CC(=O)N(c5ccc(C)c(C)c5)C4)CC3)n2)cc1OC (single isomer, unassigned) [compound 67] | < 4.35 | – | < 4.35 | – | 5.13 | 255 | 420 | 4.39 | – | 4.76
6 | COc1cccc(-c2noc(C3CCN(C(=O)[C@@H]4CC(=O)N(c5ccc(C)c(C)c5)C4)CC3)n2)c1 (single isomer, unassigned) [compound 69] | < 4.35 | – | < 4.35 | – | – | 294 | 387 | < 4.35 | – | –
7 | Cc1ccc(-c2nc(C3CCN(C(=O)[C@H]4CC(=O)N(c5ccc(C)c(C)c5)C4)CC3)no2)cc1 (single isomer, unassigned) [compound 71] | < 4.35 | – | < 4.35 | – | 5.09 | 151 | 235 | < 4.35 | – | 5.05
8 | Cc1cccc(-c2nc(C3CCN(C(=O)[C@H]4CC(=O)N(c5ccc(C)c(C)c5)C4)CC3)no2)c1 (single isomer, unassigned) [compound 73] | < 4.35 | – | < 4.35 | – | 4.80 | 151 | 303 | 4.47 | – | –
9 | Cc1cccc(-c2nc(C3CCN(C(=O)[C@@H]4CC(=O)N(c5ccc(C)c(C)c5)C4)CC3)no2)c1 (single isomer, unassigned) [compound 74] | < 4.35 | – | < 4.35 | – | 4.75 | 155 | 411 | 4.51 | – | –
10 | COc1ccc(-c2noc(C3CCN(C(=O)CNC(=O)c4ccccc4)CC3)n2)cc1OC [Compound 7] | < 4.35 | – | < 4.35 | – | 7.40 | 594 | 782 | 4.41 | – | 6.75
11 | COc1ccc(-c2noc(C3CCN(C(=O)Cc4cncc(C)n4)CC3)n2)cc1OC [Compound 45] | – | – | – | – | 4.58 | 121 | 19 | – | – | 4.53
12 | COc1ccc(-c2noc(C3CCN(C(=O)C4CC(=O)N(c5ccccc5)C4)CC3)n2)cc1OC (stereo not shown) [compound 18] | < 4.35 | – | < 4.35 | – | 6.58 | 452 | 826 | – | – | 5.82
13 | COc1ccc(-c2noc(C3CCN(C(=O)CN(C)C(=O)c4ccccc4)CC3)n2)cc1OC [compound 22] | 4.39 | – | 4.52 | – | 5.07 | 334 | 372 | – | – | –
14 | COc1ccc(-c2noc(C3CCN(C(=O)[C@H]4CC(=O)N(c5ccccc5)C4)CC3)n2)cc1OC [compound 65] | < 4.35 | – | – | – | 7.44 | 643 | 779 | – | – | 6.01
15 | COc1ccc(-c2noc(C3CCN(C(=O)[C@@H]4CC(=O)N(c5ccccc5)C4)CC3)n2)cc1OC [compound 66] | < 4.35 | – | – | – | 4.96 | 350 | 790 | – | – | 4.67
16 | COc1ccc(-c2noc(C3CCN(C(=O)[C@@H]4CC(=O)N(c5ccc(C)c(C)c5)C4)CC3)n2)cc1OC [compound 68] | < 4.35 | – | – | – | 5.73 | 652 | 775 | – | – | 5.51
17 | CC1(C)CC(=O)c2c(O)cc(OCC(=O)N3CCC(c4nc(-c5ccccc5)no4)CC3)cc2O1 [compound 76] | – | – | – | – | 5.00 | 76 | 162 | – | – | 4.83
18 | COc1ccc(-c2noc(C3CCN(C(=O)COc4cc(O)c5c(c4)OC(C)(C)CC5=O)CC3)n2)cc1OC [compound 77] | – | – | – | – | – | 345 | 436 | – | – | –
19 | O=C(NC1CC1c1ccccc1)N1CCC(c2nc(-c3ccc4ccccc4n3)no2)CC1 (stereo not shown) [compound 82] | – | – | – | – | – | – | 40 | – | – | 4.78
20 | CCOc1ccc(-c2noc(C3CCN(C(=O)C4CC(=O)N(c5ccccc5)C4)CC3)n2)cc1OC (stereo not shown) [compound 84] | – | – | – | – | 7.22 | 463 | 866 | – | – | 6.02
21 | Cc1nn(C)c2cc(-c3noc(C4CCN(C(=O)[C@@H]5CC(=O)N(c6ccccc6)C5)CC4)n3)ccc12 [compound 91] | < 4.35 | – | < 4.35 | – | 6.97 | 452 | – | < 4.35 | – | –
22 | CCOc1ccc(-c2noc(C3CCN(C(=O)c4cc(-c5ccccc5)no4)CC3)n2)cc1OC [compound 92] | < 4.35 | – | < 4.35 | – | 5.60 | 187 | – | < 4.35 | – | –
23 | Cc1n[nH]c2cc(-c3noc(C4CCN(C(=O)CNC(=O)c5ccccc5)CC4)n3)ccc12 [compound 93] | < 4.35 | – | < 4.35 | – | 5.74 | 626 | – | < 4.35 | – | –
24 | Cn1ncc2ccc(-c3noc(C4CCN(C(=O)CNC(=O)c5ccccc5)CC4)n3)cc21 [compound 94] | < 4.35 | – | 4.41 | – | 7.40 | – | – | < 4.35 | – | –
25 | CCOc1ccc(-c2noc(C3CCN(C(=O)CNC(=O)c4ccccc4)CC3)n2)cc1C#N [compound 101] | < 4.35 | – | < 4.35 | – | 5.93 | 122 | – | < 4.35 | – | –
26 | Cc1nn(C)c2cc(-c3noc(N4CCN(C(=O)CNC(=O)c5ccccc5)CC4)n3)ccc12 [compound 102] | < 4.35 | – | < 4.35 | – | 6.55 | 411 | – | < 4.35 | – | –
